Experimental findings from publication PMC5641089, “WX-132-18B, a novel microtubule inhibitor, exhibits promising anti-tumor effects” (Oncotarget, 2017) are described below.

Experiment [1] relates to T1, tubulin.
T1 construct: tubulin prepared from fresh dog brain tissue; with alpha/beta-tubulin heterodimer
As to the kind of experiment: competition with BODIPY FL-vinblastine (fluorescence). The experiment is classed as binding, Canis lupus familiaris.

Experiment [2] deals with T1, tubulin. Briefly: competitive colchicine-tubulin fluorescence assay; limited trypsin proteolysis. It is filed as binding, Canis lupus familiaris.

With `CC[C@]1(O)C[C@H]2CN(CCc3c([nH]c4ccccc34)[C@@](C(=O)OC)(c3cc4c(cc3OC)N(C=O)[C@H]3[C@@](O)(C(=O)OC)[C@H](OC(C)=O)[C@]5(CC)C=CCN6CC[C@]43[C@@H]65)C2)C1` [vincristine], the IC50 (usually the concentration at which inhibition is half-maximal) in the experiment with tubulin [1] is 6.97 ± 1.61 µM.
`COc1ccc2c(c1)NC(=O)CN2c1nc(C)nc2ccccc12` [WX-132-18B] registered an IC50 in the experiment with tubulin [2] of 0.47 ± 0.1 µM.
